Assay results: PMC10254923 (2023)

Legend:
[1] = tested on: poly dAdT—poly dAdT; p(dAdT)2 (DNA, polymer) AT; assay: UV thermal denaturation at 260 nm; conditions: Na+ (sodium cacodylate, I = 0.05 M); pH 7.0; r = [compound]/[polynucleotide] = 0.1; error ±0.5 °C; per base
[2] = tested on: poly rA—poly rU; prAprU (RNA, polymer) A/U; assay: UV/vis titration, Scatchard (McGhee-von Hippel) fit; conditions: Na+ (sodium cacodylate, I = 0.05 M); pH 7.0, 25 °C; n fixed 0.2; polynucleotide concentration as phosphates; per base
[3] = tested on: poly dAdT—poly dAdT; p(dAdT)2 (DNA, polymer) AT; assay: as above; conditions: Na+ (sodium cacodylate, I = 0.05 M); pH 7.0, 25 °C; n fixed 0.2; polynucleotide concentration as phosphates; per base
[4] = tested on: poly dGdC—poly dGdC; p(dGdC)2 (DNA, polymer) GC; assay: as above; conditions: Na+ (sodium cacodylate, I = 0.05 M); pH 7.0, 25 °C; n fixed 0.2; polynucleotide concentration as phosphates; per base
[5] = tested on: poly rA—poly rU; prAprU (RNA, polymer) A/U; assay: UV thermal denaturation at 260 nm; conditions: Na+ (sodium cacodylate, I = 0.05 M); pH 7.0; r = [compound]/[polynucleotide] = 0.1; error ±0.5 °C; per base
[6] = tested on: poly dAdT—poly dAdT; p(dAdT)2 (DNA, polymer) AT; assay: fluorimetric titration, Scatchard (McGhee-von Hippel) fit; conditions: Na+ (sodium cacodylate, I = 0.05 M); pH 7.0, 25 °C; n fixed 0.2; polynucleotide concentration as phosphates; per base
[7] = tested on: poly dGdC—poly dGdC; p(dGdC)2 (DNA, polymer) GC; assay: as above; conditions: Na+ (sodium cacodylate, I = 0.05 M); pH 7.0, 25 °C; n fixed 0.2; polynucleotide concentration as phosphates; per base
[8] = tested on: poly rA—poly rU; prAprU (RNA, polymer) A/U; assay: as above; conditions: Na+ (sodium cacodylate, I = 0.05 M); pH 7.0, 25 °C; n fixed 0.2; polynucleotide concentration as phosphates; per base

| ΔTm [1] | logKs [2] | logKs [3] | logKs [4] | ΔTm [5] | logKs [6] | logKs [7] | logKs [8] | Compound |
| --- | --- | --- | --- | --- | --- | --- | --- | --- |
| 6.7 °C | 7.5 | 6.1 | 6.0 | 12.1 °C |  |  |  | Cc1cc(-c2ccc(-c3ccc(-c4cc(C)c(B(c5c(C)cc([N+](C)(C)C)cc5C)c5c(C)cc([N+](C)(C)C)cc5C)c(C)c4)cc3)cc2)cc(C)c1B(c1c(C)cc([N+](C)(C)C)cc1C)c1c(C)cc([N+](C)(C)C)cc1C |
| 9.6 °C |  |  |  | 7.4 °C | 8.7 | 8.0 | 7.4 | Cc1cc(-c2cc3ccc4cc(-c5cc(C)c(B(c6c(C)cc([N+](C)(C)C)cc6C)c6c(C)cc([N+](C)(C)C)cc6C)c(C)c5)cc5ccc(c2)c3c45)cc(C)c1B(c1c(C)cc([N+](C)(C)C)cc1C)c1c(C)cc([N+](C)(C)C)cc1C |
| 8.2 °C |  |  |  | 9.3 °C | 6.9 | 7.4 | 7.9 | Cc1cc(-c2ccc3c(c2)Cc2cc(-c4cc(C)c(B(c5c(C)cc([N+](C)(C)C)cc5C)c5c(C)cc([N+](C)(C)C)cc5C)c(C)c4)ccc2-3)cc(C)c1B(c1c(C)cc([N+](C)(C)C)cc1C)c1c(C)cc([N+](C)(C)C)cc1C |
